Measurements published in US20240376085A1 (Janssen Pharmaceutica NV, priority 2021, published 2024).

Legend:
[1] = system: IL-17A-induced G-CSF production in human normal keratinocyte (NHK); assay: NHK assay: IL-17A-induced G-CSF production in normal human keratinocytes; type: cell-based; conditions: 24 h, IL-17A 5 ng/mL, average if tested more than once
Summary of the method: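 Compound titrations are first mixed with recombinant human IL-17A for 1 h at room temperature. The mixture goes onto adult normal human keratinocytes (final IL-17A 5 ng/mL, 5% FBS, 0.2% DMSO) for 24 h at 37 °C. Secreted G-CSF is then measured by HTRF and IC50 fitted.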

IL-17A : IL-17RA binding = target: T1, IL-17A : IL-17RA binding (Homo sapiens, UniProt Q16552, K93Q); assay: IL-17A(FLAG-tagged):IL-17RA(His-tagged) binding disruption Eu-HTRF assay, Protocol 1; conditions: FLAG-IL-17A 2.5 nM at 2x final concentration; average if tested more than once
T1 construct: Name: IL-17A-Flag
T1 sequence (Q16552 with tags, fused parts or gaps K93Q): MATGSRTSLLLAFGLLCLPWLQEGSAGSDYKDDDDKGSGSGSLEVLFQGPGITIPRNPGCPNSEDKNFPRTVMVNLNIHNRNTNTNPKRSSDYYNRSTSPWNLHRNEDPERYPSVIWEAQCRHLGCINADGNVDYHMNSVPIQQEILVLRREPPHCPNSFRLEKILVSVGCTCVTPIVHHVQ
Summary of the method: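 IC50 came from a one-site competition fit of the acceptor/donor (665/620 nm) HTRF ratio. His-tagged IL-17RA, Eu-anti-FLAG and D2-anti-His were added after a 1 h rt compound preincubation with FLAG-tagged IL-17A dimer in PBS/0.01% Triton X-100, followed by 2 h at rt before reading.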

SMILES | IC50 (IL-17A : IL-17RA binding) | IC50 ([1]; Homo sapiens, Keratinocyte) | IC50 [1]
CC(C)CCn1ncc(C(=O)N[C@H](c2nc3cc([C@@H](C)NC(=O)CCC(F)(F)F)ccc3[nH]2)C2CCC(F)(F)CC2)c1C(C)C [Example 11, N—[(S)-(4,4-Difluorocyclohexyl)-[6-[(1R)-1-(4,4,4-trifluorobutanoylamino)ethyl]-1H-benzimidazol-2-yl]methyl]-1-isopentyl-5-isopropyl-pyrazole-4-carboxamide] | > 0.1 µM | > 0.1 µM | 
C[C@H](NC(=O)CCC(F)(F)F)c1ccc2[nH]c([C@@H](NC(=O)c3ccnn3CCC(F)(F)F)C3CCC(F)(F)CC3)nc2c1 [Example 124, N—((S)-(4,4-Difluorocyclohexyl)(5-((S)-1-(4,4,4-trifluorobutanamido)ethyl)-1H-benzo[d]imidazol-2-yl)methyl)-1-(3,3,3-trifluoropropyl)-1H-pyrazole-5-carboxamide] | > 0.1 µM | > 0.1 µM | 
C[C@@H](NC(=O)CCC(F)(F)F)c1ccc2[nH]c([C@@H](NC(=O)c3cnnn3CCC(F)(F)F)C3CCC(F)(F)CC3)nc2c1 [Example 4, N—[(S)-(4,4-Difluorocyclohexyl)-[6-[(1R)-1-(4,4,4-trifluorobutanoylamino)ethyl]-1H-benzimidazol-2-yl]methyl]-3-(3,3,3-trifluoropropyl)triazole-4-carboxamide] | > 0.1 µM | 0.05 to 0.1 µM | 
C[C@@H](NC(=O)CCC(F)(F)F)c1ccc2[nH]c([C@@H](NC(=O)c3cn(CCCC(F)(F)F)nn3)C3CCC(F)(F)CC3)nc2c1 [Example 21, N—[(S)-(4,4-Difluorocyclohexyl)-[6-[(1R)-1-(4,4,4-trifluorobutanoylamino)ethyl]-1H-benzimidazol-2-yl]methyl]-1-(4,4,4-trifluorobutyl)triazole-4-carboxamide] | > 0.1 µM | > 0.1 µM | 
C[C@@H](NC(=O)CCC(F)(F)F)c1ccc2[nH]c([C@@H](NC(=O)c3c(C#N)cnn3CC3CCC3)C3CCC(F)(F)CC3)nc2c1 [Example 90, 4-Cyano-1-(cyclobutylmethyl)-N—((S)-(4,4-difluorocyclohexyl)(5-((R)-1-(4,4,4-trifluorobutanamido)ethyl)-1H-benzo[d]imidazol-2-yl)methyl)-1H-pyrazole-5-carboxamide] | > 0.1 µM | > 0.1 µM | 
CC(Cn1ncc(C(=O)N[C@H](c2nc3ccc([C@@H](C)NC(=O)CCC(F)(F)F)cc3[nH]2)C2CCC(F)(F)CC2)n1)C(F)(F)F (single isomer, unassigned) [Example 69, N—((S)-(4,4-Difluorocyclohexyl)(6-((R)-1-(4,4,4-trifluorobutanamido)ethyl)-1H-benzo[d]imidazol-2-yl)methyl)-2-((R*)-3,3,3-trifluoro-2-methylpropyl)-2H-1,2,3-triazole-4-carboxamide] | > 0.1 µM | > 0.1 µM | 
C[C@@H](NC(=O)CCC(F)(F)F)c1ccc2nc([C@@H](NC(=O)c3cnnn3CCC(C)(C)C)C3CCC(F)(F)CC3)[nH]c2c1 [Example 68, N—((S)-(4,4-Difluorocyclohexyl)(6-((R)-1-(4,4,4-trifluorobutanamido)ethyl)-1H-benzo[d]imidazol-2-yl)methyl)-1-(3,3-dimethylbutyl)-1H-1,2,3-triazole-5-carboxamide] | > 0.1 µM | > 0.1 µM | 
C[C@@H](NC(=O)CCC(F)(F)F)c1ccc2[nH]c([C@@H](NC(=O)c3cnn(CCOC(F)F)n3)C3CCC(F)(F)CC3)nc2c1 [Example 33, N—[(S)-(4,4-Difluorocyclohexyl)-[6-[(1R)-1-(4,4,4-trifluorobutanoylamino)ethyl]-1H-benzimidazol-2-yl]methyl]-2-[2-(difluoromethoxy)ethyl]triazole-4-carboxamide] | > 0.1 µM | > 0.1 µM | 
C[C@@H](NC(=O)CCC(F)(F)F)c1ccc2nc([C@@H](NC(=O)c3cnnn3CC3CCC3)C3CCC(F)(F)CC3)[nH]c2c1 [Example 63, 1-(Cyclobutylmethyl)-N—((S)-(4,4-difluorocyclohexyl)(6-((R)-1-(4,4,4-trifluorobutanamido)ethyl)-1H-benzo[d]imidazol-2-yl)methyl)-1H-1,2,3-triazole-5-carboxamide] | 0.05 to 0.1 µM | 0.05 to 0.1 µM | 

Second part, led by results:

IC50 (IL-17A : IL-17RA binding) | SMILES | IC50 ([1]; Homo sapiens, Keratinocyte) | IC50 [1]
> 0.1 µM | Cc1nonc1C(=O)N[C@H](c1nc2ccc([C@H](NC(=O)CC3CC(F)(F)C3)C3CC3)cc2[nH]1)C1CCOC(C)(C)C1 (single isomer, unassigned) [Example 174, N—((S)-(6-((R)-Cyclopropyl(2-(3,3-difluorocyclobutyl)acetamido)methyl)-1H-benzo[d]imidazol-2-yl)((R*)-2,2-dimethyltetrahydro-2H-pyran-4-yl)methyl)-4-methyl-1,2,5-oxadiazole-3-carboxamide] |  | 0.05 to 0.1 µM
> 0.1 µM | COCC(NC(=O)CC1CC(F)(F)C1)c1ccc2[nH]c([C@H](COC(C)(C)C(F)(F)F)NC(=O)c3nonc3C3CC3)nc2c1 (single isomer, unassigned) [Example 165, 4-Cyclopropyl-N—((R)-1-(5-((S*)-1-(2-(3,3-difluorocyclobutyl)acetamido)-2-methoxyethyl)-1H-benzo[d]imidazol-2-yl)-2-((1,1,1-trifluoro-2-methylpropan-2-yl)oxy)ethyl)-1,2,5-oxadiazole-3-carboxamide] | > 0.1 µM | 
> 0.1 µM | O=C(CC1CC(F)(F)C1)N[C@@H](c1ccc2[nH]c([C@@H](NC(=O)c3nonc3OCC(F)F)C3CCC(F)(F)CC3)nc2c1)C1CC1 [Example 144, N—((S)-(5-((R)-Cyclopropyl(2-(3,3-difluorocyclobutyl)acetamido)methyl)-1H-benzo[d]imidazol-2-yl)(4,4-difluorocyclohexyl)methyl)-4-(2,2-difluoroethoxy)-1,2,5-oxadiazole-3-carboxamide] | < 0.05 µM | 
< 0.05 µM | CC(C)n1nccc1C(=O)NC(CO[C@H](C)C(F)(F)F)c1nc2ccc([C@H](NC(=O)CC3CC(F)(F)C3)C3CC3)cc2[nH]1 (single isomer, unassigned) [Example 157, N—((R*)-1-(6-((R)-Cyclopropyl(2-(3,3-difluorocyclobutyl)acetamido)methyl)-1H-benzo[d]imidazol-2-yl)-2-(((R)-1,1,1-trifluoropropan-2-yl)oxy)ethyl)-1-isopropyl-1H-pyrazole-5-carboxamide] | 0.05 to 0.1 µM | 
< 0.05 µM | O=C(CC1CC(F)(F)C1)N[C@@H](c1ccc2[nH]c([C@@H](NC(=O)c3nonc3C3CC3)C3CCC(F)(F)CC3)nc2c1)C1CC1 [Example 143, 4-Cyclopropyl-N—((S)-(5-((R)-cyclopropyl(2-(3,3-difluorocyclobutyl)acetamido)methyl)-1H-benzo[d]imidazol-2-yl)(4,4-difluorocyclohexyl)methyl)-1,2,5-oxadiazole-3-carboxamide] | < 0.05 µM | 
> 0.1 µM | C[C@@H](NC(=O)CC(C(F)(F)F)C(F)(F)F)c1ccc2nc([C@@H](NC(=O)c3cccc(C#N)c3)C3CCC(F)(F)CC3)[nH]c2c1 [Example 132, 3-Cyano-N—((S)-(4,4-difluorocyclohexyl)(6-((R)-1-(4,4,4-trifluoro-3-(trifluoromethyl)butanamido)ethyl)-1H-benzo[d]imidazol-2-yl)methyl)benzamide] | > 0.1 µM | 
> 0.1 µM | C[C@@H](NC(=O)CCC(F)(F)F)c1ccc2[nH]c([C@@H](NC(=O)c3ccnn3CC(F)(F)F)C3CCC(F)(F)CC3)nc2c1 [Example 128, N—((S)-(4,4-Difluorocyclohexyl)(5-((R)-1-(4,4,4-trifluorobutanamido)ethyl)-1H-benzo[d]imidazol-2-yl)methyl)-1-(2,2,2-trifluoroethyl)-1H-pyrazole-5-carboxamide] | > 0.1 µM | 
> 0.1 µM | C[C@@H](NC(=O)CCC(F)(F)F)c1ccc2[nH]c([C@@H](NC(=O)c3ccc(CCC(F)(F)F)s3)C3CCC(F)(F)CC3)nc2c1 [Example 221, N—((S)-(4,4-Difluorocyclohexyl)(5-((R)-1-(4,4,4-trifluorobutanamido)ethyl)-1H-benzo[d]imidazol-2-yl)methyl)-5-(3,3,3-trifluoropropyl)thiophene-2-carboxamide] | > 0.1 µM | 
> 0.1 µM | C[C@@H](NC(=O)CCC(F)(F)F)c1ccc2nc([C@@H](NC(=O)c3cccc(C#N)c3)C3CCC(F)(F)CC3)[nH]c2c1 [Example 131, 3-Cyano-N—((S)-(4,4-difluorocyclohexyl)(6-((R)-1-(4,4,4-trifluorobutanamido)ethyl)-1H-benzo[d]imidazol-2-yl)methyl)benzamide] | > 0.1 µM | 
0.05 to 0.1 µM | CC(C)n1nccc1C(=O)N[C@@H](CC(C)(C)C(F)F)c1nc2ccc([C@H](NC(=O)CC3CC(F)(F)C3)C3CC3)cc2[nH]1 [Example 234, N—((S)-1-(6-((R)-Cyclopropyl(2-(3,3-difluorocyclobutyl)acetamido)methyl)-1H-benzo[d]imidazol-2-yl)-4,4-difluoro-3,3-dimethylbutyl)-1-isopropyl-1H-pyrazole-5-carboxamide] | 0.05 to 0.1 µM | 
0.05 to 0.1 µM | Cc1nonc1C(=O)N[C@H](c1nc2ccc([C@H](NC(=O)CC3CC(F)(F)C3)C3CC3)cc2[nH]1)[C@@H]1CCCCO1 (relative stereo) [Example 248, N—((R*)-(6-((R)-Cyclopropyl(2-(3,3-difluorocyclobutyl)acetamido)methyl)-1H-benzo[d]imidazol-2-yl)((S*)-tetrahydro-2H-pyran-2-yl)methyl)-4-methyl-1,2,5-oxadiazole-3-carboxamide] | > 0.1 µM | 
